Measurements from patent US12286437B2, “Cardiac sarcomere inhibitors” (Cytokinetics, Inc., priority 2021, dated 2025).

Legend:
[1] = Mouse single dose pharmacokinetics; assay type: in vivo, C57BL/6 mice; conditions: male, C57BL/6, plasma, 0.5 mg/kg, IV; for Vd: read-out: Vss; for half-life: read-out: t½ (converted)
Method: Male C57BL/6 mice (18-25 g, 6-8 weeks old) were obtained from Zhejiang Vital River Laboratory Animal Technology Co., Ltd. All animals for IV administration had free access to food and water. The IV dosing was performed through tail vein. The IV dose solution for the Test Articles was prepared in 10% DMA/20% PG/70% HPβCD solution (40% w/v aqueous HPβCD) at a concentration of 0.1 mg/mL. The oral dosing suspension was prepared by suspending Test Article in 0.5% HPMC/0.1% Tween 80 in water at a concentration 0.2 mg/mL. Concentrations of IV and PO doses were measured at the end of the study. Pharmacokinetic (PK) parameters were calculated using the nominal dose values if the measured values were within 20% of the nominal values. A group of 15 mice received the IV dose where the volume was 5 mL/kg. Another group of 15 mice received by oral gavage of Test Article at 1 mg/kg. The oral dose volume was 5 mL/kg. Sparse blood samples were collected from groups of three mice via retro-orbital bleeding, placed into a K2EDTA microtainer tube and maintained on ice until centrifugation to obtain plasma. Each designated group of mice were bled at two-time points. The time points were predose (PO only), 5 (IV only), 15, 30 minutes, 1, 2, 4, 6, 8 and 24 hours postdose. Blood samples were centrifuged and the collected plasma was stored at −80° C. until analysis. Plasma samples were analyzed for Test Article concentrations using an LC/MS/MS method. Briefly, a 50 μL aliquot of each plasma sample was mixed with 100 μL of acetonitrile that contained an internal standard (IS). The mixture was vortexed and centrifuged. Ten (10) μL of the resulting solution was injected onto a reverse-phase C18 column and the resultant peaks detected on a LC/MS/MS equipped with a turbo ionspray ionization source. Sample concentrations below the limit of quantification (BLQ) were treated as zero for PK calculations. Composite PK parameters were estimated from a maximum of two sampling points per mouse and three mice per sampling point and the sparse data option of WinNonlin was used for noncompartmental analysis of the concentration-time data (Phoenix WinNonLin software, version 64; Pharsight, Mountain View, CA). The elimination rate constant (k) was calculated as the absolute value of the slope of the linear regression of logarithm of the concentration versus time for the last three data points of the concentration-time profiles. Apparent elimination half-life (t1/2) values were calculated as ln(2)/k. Area under the concentration-time curve (AUC) values were estimated using linear trapezoidal method. AUCt values were calculated from the dosing time to the last measurable concentration. AUC∞ values were calculated as the sum of the corresponding AUCt and the ratio of the last detectable concentration divided by k. Plasma clearance (CL) was calculated from Dose/AUC∞. Mean resident time (MRT) was estimated by moment analysis. Volume of distribution at steady state (Vss) was calculated from MRT∞×CL. Maximum concentration (Cmax) and time to reach Cmax (tmax) were recorded as observed. Bioavailability was calculated dAUC∞,po/dAUC∞,iv×100% where dAUC was the dose normalized AUC value. Data for compounds tested are provided in Table B. Compounds tested were prepared in accordance with the synthetic procedures described herein.

[2] = Monkey cassette dosing pharmacokinetics; assay type: in vivo; conditions: IV; for clearance / Vd: male, plasma; for Vd: read-out: Vss
CYP2C9 = target: T1, CYP2C9 (Homo sapiens, UniProt P11712); assay: Time-dependent inhibition of CYP2C9 in human liver microsomes; assay type: in vitro ADME; conditions: for (% Activity NADPH T0)/(% Activity NADPH T30): fold change; for activity at 30 min, 25 µM / activity at 0 min, 25 µM / activity at 30 min, 50 µM / activity at 0 min, 50 µM: pooled human liver microsomes, human liver microsomes; for activity at 30 min, 25 µM / activity at 30 min, 50 µM: after 30 minutes incubation, read-out: % Activity NADPH T30; for activity at 0 min, 25 µM / activity at 0 min, 50 µM: time zero, read-out: % Activity NADPH T0
T1 construct: Pooled human microsomes and selective CYP probe substrates were used; from tissue; host or cells: pooled human liver microsomes
T1 sequence (P11712 whole entry): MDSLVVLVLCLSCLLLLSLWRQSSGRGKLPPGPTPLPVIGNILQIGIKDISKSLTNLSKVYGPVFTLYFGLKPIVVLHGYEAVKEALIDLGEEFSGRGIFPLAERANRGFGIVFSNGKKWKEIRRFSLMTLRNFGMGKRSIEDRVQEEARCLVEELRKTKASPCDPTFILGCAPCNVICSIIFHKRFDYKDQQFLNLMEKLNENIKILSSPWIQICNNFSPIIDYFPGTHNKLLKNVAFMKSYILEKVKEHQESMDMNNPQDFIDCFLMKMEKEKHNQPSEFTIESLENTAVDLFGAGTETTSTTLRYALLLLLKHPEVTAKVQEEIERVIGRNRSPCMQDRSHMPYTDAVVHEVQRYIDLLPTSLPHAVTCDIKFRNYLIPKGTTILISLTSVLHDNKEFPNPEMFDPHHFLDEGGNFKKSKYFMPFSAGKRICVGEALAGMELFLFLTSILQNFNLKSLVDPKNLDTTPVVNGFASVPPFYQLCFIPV
Method: An assessment of the time-dependent Inhibitory Potential of the test compounds against Principal Human Cytochrome P450 Isozymes using Human Liver Microsomes was also carried out using standard methods (Grimm et al, Drug Metab. Dispos., July; 37(7):1355-70. doi: 10.1124/dmd.109.026716, 2009). Pooled human microsomes and selective CYP probe substrates were used for in vitro assessment of test compounds at 25 and 50 μM as time-dependent inhibitors of […] human hepatic cytochrome P450 isozymes (CYP1A2, 2B6, 2C9, 2C19, 2D6, and 3A4). LC-MS/MS was used to quantify metabolite formation. The inhibition of each P450 enzyme in human liver microsomes was measured as the percentage decrease in the activity of marker metabolite formation as measured by LC-MS/MS compared to non-inhibited controls (=100% activity) at time zero and after 30 minutes incubation. The occurrence of any time dependent inhibition was then expressed as the fold change in enzyme activity at time zero relative to the activity after 30 minutes incubation.

[3] = system: bovine cardiac myofibrils; assay: Myofibril assay (ATPase activity of skinned bovine cardiac myofibrils, PK/LDH-coupled); assay type: biochemical; conditions: inhibition of steady-state ATPase of bovine cardiac myofibrils; CaCl2 for 50% or 75% activation
Method: To evaluate the effect of compounds on the ATPase activity of full-length cardiac myosin in the context of the native sarcomere, skinned myofibril assays were performed. Bovine cardiac myofibrils were obtained by homogenizing bovine cardiac left ventricular tissue in the presence of a detergent such as triton X-100. Such treatment removes membranes and a majority of the soluble cytoplasmic proteins but leaves intact the cardiac sarcomeric acto-myosin apparatus. Myofibril preparations retain the ability to hydrolyze ATP in a Ca^2+ regulated manner. ATPase activities of such myofibril preparations in the presence and absence of compounds were assayed at Ca^2+ concentrations activating to a defined fraction of the maximal rate (i.e., […], 75%). Small molecule agents were assessed for their ability to inhibit the steady-state ATPase activity of bovine cardiac myofibrils using pyruvate kinase and lactate dehydrogenase (PK/LDH)-coupled enzyme system. This assay regenerates myosin-produced ADP into ATP by oxidizing NADH, producing an absorbance change at 340 nm. Prior to testing small molecule agents, the bovine cardiac myofibrils were assessed for their calcium responsiveness and the calcium concentration that achieves either a 50% (pCa50) or 75% (pCa75) activation of the myofibril system was chosen as the final condition for assessing the inhibitory activity of the small molecule agents. All enzymatic activity was measured in a buffered solution containing 12 mM PIPES (piperazine-N,N′-bis(2-ethanesulfonic acid), 2 mM magnesium chloride at pH 6.8 (PM 12 buffer). Final assay conditions were 1 mg/mL of bovine cardiac myofibrils, 4 U/mL pyruvate kinase, 6 U/mL lactate dehydrogenase, 50 μM ATP, 0.1 mg/mL BSA (bovine serum albumin), 10 ppm antifoam, 1 mM DTT, 0.5 mM NADH, 1.5 mM PEP, 0.6 mM EGTA, and an amount of CaCl2 sufficient to achieve either 50% or 75% activation of the myofibril ATPase activity. Results for compounds tested are provided in Table A. Compounds tested were prepared in accordance with the synthetic procedures described herein.

clearance [1] [mL/min/kg] | Vd [1] [L/kg] | half-life [1] [h] | t l/2 [2] [h] | clearance [2] [mL/min/kg] | Vd [2] [L/kg] | (% Activity NADPH T0)/(% Activity NADPH T30) (CYP2C9; CYP2C9, 25 μM) | (% Activity NADPH T0)/(% Activity NADPH T30) (CYP2C9; CYP2C9, 50 μM) | activity at 30 min, 25 µM (CYP2C9; CYP2C9, 25 μM) [%] | activity at 0 min, 25 µM (CYP2C9; CYP2C9, 25 μM) [%] | activity at 30 min, 50 µM (CYP2C9; CYP2C9, 50 μM) [%] | activity at 0 min, 50 µM (CYP2C9; CYP2C9, 50 μM) [%] | CDMF IC15 [3] [µM] | (% Activity NADPH T0)/(% Activity NADPH T30) (CYP2C9; CYP2C9, 50 μM, listed as compound 7) | SMILES
18.9 | 4.08 | 3.08 | 8.2 | 19 | 10.2 | 0.8 | 1.0 | 79 | 62 | 64 | 62 | 1.3 |  | C[C@H]1CC[C@H](N2CC(=O)N(Cc3ccc(F)c(F)c3)C3(CN(C(N)=O)C3)C2=O)CC1 [Compound 5, 5-(3,4-difluorobenzyl)-8-((1r,4r)-4-methylcyclohexyl)-6,9-dioxo-2,5,8-triazaspiro[3.5]nonane-2-carboxamide]
28.2 | 2.52 | 1.27 | 8.07 | 12.3 | 6.29 | 1.2 | 1.0 | 41 | 48 | 33 | 34 | 1.4 |  | Cc1cc(CN2C(=O)CN([C@H]3CC[C@H](C)CC3)C(=O)C23CN(C(N)=O)C3)ccc1F [Compound 6, 5-(4-fluoro-3-methylbenzyl)-8-((1r,4r)-4-methylcyclohexyl)-6,9-dioxo-2,5,8-triazaspiro[3.5]nonane-2-carboxamide]
15 | 2.95 | 2.5 | 12.5 | 10.2 | 9.12 | 1.3 | 1.4 | 75 | 94 | 61 | 87 | 0.8 | 1.3 | C[C@H]1CC[C@H](N2CC(=O)N(Cc3ccc(F)c(Cl)c3)C3(CN(C(N)=O)C3)C2=O)CC1 [Compound 7, 5-(3-chloro-4-fluorobenzyl)-8-((1r,4r)-4-methylcyclohexyl)-6,9-dioxo-2,5,8-triazaspiro[3.5]nonane-2-carboxamide]
 |  |  | 8.69 |  |  | 1.0 | 0.9 |  |  |  |  | 1.5 |  | C[C@H]1CC[C@H](N2CC(=O)N(Cc3ccc(F)c(F)c3)C3(CN(C=O)C3)C2=O)CC1 [Compound 4, 5-(3,4-difluorobenzyl)-8-((1r,4r)-4-methylcyclohexyl)-6,9-dioxo-2,5,8-triazaspiro[3.5]nonane-2-carbaldehyde]
132 | 5.14 | 0.66 | 3.72 | 20.2 | 4.76 | 1.0 | 1.0 | 107 | 104 | 109 | 112 | 1.3 |  | CC(C)N1CC(=O)N(Cc2ccc(Cl)c(F)c2)C2(CN(c3cccnn3)C2)C1=O [Compound 8, 5-(4-chloro-3-fluorobenzyl)-8-isopropyl-2-(pyridazin-3-yl)-2,5,8-triazaspiro[3.5]nonane-6,9-dione]
21 | 2.95 | 1.18 | 8.04 | 12.5 | 10.2 | 0.9 | 1.2 | 47 | 44 | 27 | 32 | 1.2 |  | C[C@H]1CC[C@H](N2CC(=O)N(Cc3ccc(Cl)cc3)C3(CN(C(N)=O)C3)C2=O)CC1 [Compound 18, 5-(4-chlorobenzyl)-8-((1r,4r)-4-methylcyclohexyl)-6,9-dioxo-2,5,8-triazaspiro[3.5]nonane-2-carboxamide]
101 | 2.25 | 0.46 | 1.83 | 21.4 | 3.15 | 0.9 | 1.0 | 114 | 107 | 109 | 111 | 2.0 |  | CC(C)N1CC(=O)N(Cc2ccc(C(F)(F)F)cc2)C2(CN(c3cccnn3)C2)C1=O [Compound 13, 8-isopropyl-2-(pyridazin-3-yl)-5-(4-(trifluoromethyl)benzyl)-2,5,8-triazaspiro[3.5]nonane-6,9-dione]
